Measurements: patent US20060194815A1, “Methods and compositions for modulating serum cortisol levels” (priority 2003, published 2006)

Legend:
[1] = system: H295R human adrenal tumor cells; experiment: dbcAMP-induced cortisol synthesis in H295R cells (RIA); assay type: cell-based
Protocol: Culture media were then changed and cells were stimulated with 1 mM dbcAMP and the treatment for 24 to 48 hours. […] The synthesis of 20-OH progesterone and progesterone in Y1 and MA-10 cell media respectively were measured by RIA (Brown et al., 1992). H295R human adrenal tumor cells were seeded in 48-well plates at 10^5 cells/well and incubated for 24 hours. […] At the end of the incubation time period, cells were treated with 1 mM dbcAMP for 48 hours. Cortisol levels in the media were determined by radioimmunoassay as previously described (Amri et al., 1996).

[2] = system: MA-10 mouse Leydig tumor cells; experiment: MTT cell viability, MA-10 cells; assay type: cell-based
Protocol: Cell viability at the end of the incubation protocol described above was assessed using the mitochondrial integrity 3-(4,5-dimethylthiazol-2-yl)-2,5-diphenyl tetrazolium bromide (MTT) assay (Trevigen, Gaithersburg, Md.). Briefly, 10 l of the MTT solution were added to the cells in 100 l medium. After an incubation period of 4 hours, 100 l of detergent were added and cells were incubated overnight at 37° C. Formazan blue formation was quantified at 600 nm and 690 nm using the Victor quantitative detection spectrophotometer (EGG-Wallac, Gaithersburg, Md.) and the results expressed as (OD600-OD690).

[3] = system: peripheral-type benzodiazepine receptor (PBR); experiment: PBR radioligand binding assay ([3H]PK 11195) in procaine-treated cells; conditions: 1 μM procaine, 48 hour treatment
Protocol: Radioligand binding assays were performed as previously described (Papadopoulos et al., 1990, J. Biol. Chem. 265, 3772-3779). In brief, cells were scrapped from culture flasks into PBS, dispersed by trituration, and centrifuged at 1200×g for 5 min. The cells were resuspended in PBS to a final concentration of 10-50 μg protein/100 μl. Saturation binding studies were performed in a final volume of 300 μl in the presence of the radioligand [^3H]PK 11195 (specific activity 83.5 Ci/mmol; NEN Life Science Products) at the indicated concentrations. Nonspecific binding was determined in the presence of 6 μM of the homologous non-radioactive ligand. After 180 min incubation at 4° C., the assays were stopped by filtration through Whatman GF/C filters (Clifton, N.J.) and washed with 10 ml PBS. Bound radioactivity was determined by liquid scintillation counting. Bound [^3H]PK 11195 and [^3H]cholesterol were quantified by liquid scintillation spectrometry. Dissociation constants (Kd), the number of binding sites (Bmax) and Hill coefficients (nH) for PK 11195 and cholesterol were determined by Curve-Fit (Prism version 3.0, GraphPad Software Inc., San Diego, Calif.).

[4] = molecular target: T1, HMG-CoA reductase (Mus musculus, UniProt Q01237); experiment: Direct effect on HMG-CoA reductase activity in sonicated Y1 cell homogenates; assay type: biochemical; conditions: control 10.1±0.9
T1 construct: endogenous in cells; host or cells: Y1 mouse adrenal tumor cells (Brij 96 extract; sonicated homogenate for the direct test)
T1 sequence (Q01237 1-887): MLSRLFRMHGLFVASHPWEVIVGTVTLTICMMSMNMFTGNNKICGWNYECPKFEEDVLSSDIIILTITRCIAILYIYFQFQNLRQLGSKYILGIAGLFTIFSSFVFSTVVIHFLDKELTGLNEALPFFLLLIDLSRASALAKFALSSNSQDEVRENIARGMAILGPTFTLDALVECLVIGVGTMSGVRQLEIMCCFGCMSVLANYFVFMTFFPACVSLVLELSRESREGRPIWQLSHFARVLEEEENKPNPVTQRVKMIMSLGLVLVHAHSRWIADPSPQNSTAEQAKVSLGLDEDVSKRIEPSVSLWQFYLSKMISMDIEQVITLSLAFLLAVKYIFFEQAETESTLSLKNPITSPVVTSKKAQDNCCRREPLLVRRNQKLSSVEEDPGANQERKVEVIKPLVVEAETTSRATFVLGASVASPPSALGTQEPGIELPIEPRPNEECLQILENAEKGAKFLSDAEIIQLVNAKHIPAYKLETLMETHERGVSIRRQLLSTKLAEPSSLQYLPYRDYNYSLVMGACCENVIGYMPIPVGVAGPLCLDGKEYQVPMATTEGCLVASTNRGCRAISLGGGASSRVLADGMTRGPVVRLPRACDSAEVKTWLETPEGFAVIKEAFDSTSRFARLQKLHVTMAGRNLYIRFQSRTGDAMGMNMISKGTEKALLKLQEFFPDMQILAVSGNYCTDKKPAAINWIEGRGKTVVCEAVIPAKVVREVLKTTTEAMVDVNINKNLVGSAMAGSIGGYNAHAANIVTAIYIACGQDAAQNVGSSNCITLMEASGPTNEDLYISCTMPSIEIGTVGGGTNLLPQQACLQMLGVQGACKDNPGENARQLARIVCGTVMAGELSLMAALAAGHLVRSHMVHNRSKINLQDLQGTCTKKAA
Protocol: Cells were washed twice with ice-cold PBS and incubated with ice-cold assay buffer (0.1M sucrose, 40 mM KH2PO4, 30 mM EDTA, 50 mM KCl, 5 mM DTT, 0.25% (v/v) of Brij 96, at pH 7.4) on ice for 20 minutes. After centrifugation for 3 minutes at 14000 g (4° C.) the supernatants were collected and used for HMG-CoA reductase activity assay. The total 150 l assay mixture contained 100-200 g protein and the NADPH-generating system (2.5 mM NADP, 20 mM glucose 6-phosphate and 20 U/ml glucose 6-phosphate dehydrogenase). The reaction was started by adding substrate (^14C-HMG-CoA, 0.1 Ci) and stopped after 45 minutes by adding 10-1 of HCl 6M. ^3H-mevalonolactone was also added to the samples as an extraction recovery marker. After an additional 30 minutes incubation time, to allow complete lactonization of the product, the mixture was centrifuged. The supernatant was applied to Bond-Elut NH2 column and eluted with 1 ml of toluene/acetone (3:1). The eluate was discarded and further 4 ml of toluene/acetone was applied to the column and collected in a scintillation vial for counting ^14C-mevalonate and 3H-mevalonolactone signals (Berkhout et al., 1990).
In separate experiments cells were disrupted by sonication and then treated with procaine. The direct effect of the treatment on HMG-CoA reductase activity in the homogenates was determined as described above.

Question: With CCN(CC)CCOC(=O)c1ccc(N)cc1 [procaine] as the compound, how does the dbcAMP-stimulated cortisol production ([1]; H295R cells, 1 mM dbcAMP) read?
Answer: inhibited the dbcAMP-stimulated cortisol production in a dose-dependent manner

Question: What about the basal cortisol production ([1]; H295R cells, no dbcAMP) of the same compound?
Answer: without effecting basal cortisol production

Question: What about the “sensitivity of human adrenal tumor cells versus mouse adrenal cells” value ([1]; H295R versus Y1) of the same compound?
Answer: less sensitive

Question: And the “cell viability (MTT assay)” value [2]?
Answer: did not affect

Question: And the “ligand binding characteristics / expression of PBR” value [3]?
Answer: did not affect

Question: What about the “PBR Kd of [3H]PK 11195 in procaine-treated cells” value ([3]; control 1.8 nM, Kd of the radioligand, not of procaine) of the same compound?
Answer: 1.7 nM

Question: What about the “PBR Bmax ([3H]PK 11195) in procaine-treated cells” value ([3]; control 27±3) of the same compound?
Answer: 29±4 pmol/mg protein

Question: And the “ligand binding characteristics / expression of PBR” value ([3]; listed as Procaine)?
Answer: had no effect

Question: What about the “HMG-CoA reductase activity in sonicated cells” value (from here on “HMG-CoA reductase activity”) ([4]; 1 μM procaine) of the same compound?
Answer: 9.9±0.01 pmol/min/mg protein

Question: What about the “HMG-CoA reductase activity” value ([4]; 10 μM procaine) of the same compound?
Answer: 10.3±0.6 pmol/min/mg protein

Question: And the “HMG-CoA reductase activity” value ([4]; 100 μM procaine)?
Answer: 10.1±0.1 pmol/min/mg protein
